Results as given in PubChem BioAssay AID328 (DTP/NCI, 2004).
Values joined by “and” are separate entries in the source; they are usually repeats but may differ in a detail not shown here. Equal values may be shown once. Inconclusive results and toxic doses are left out. How the source made its calls: active means survival T/C of 150% or more; inactive means T/C below 125% in these data.

Tested on: BDF1 mice, P388 leukemia ip, median survival T/C
Test: NCI In Vivo Anticancer Drug Screen. Data for tumor model P388 Leukemia (intraperitoneal) in B6D2F1 (BDF1) mice
Settings: endpoint: median survival time, higher = longer survival
How it was run: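 T/C = treated-group survival ÷ vehicle-control survival; tumour transplanted into mice before dosing.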

[1] = dose: 100.0 mg/kg/injection, schedule: Q04DX003 (ip), vehicle: saline with Tween-80
[2] = dose: 200.0 mg/kg/injection, schedule: Q04DX003 (ip), vehicle: saline with Tween-80
[3] = dose: 50.0 mg/kg/injection, schedule: Q01DX009 (ip), vehicle: saline with Tween-80
[4] = dose: 100.0 mg/kg/injection, schedule: Q01DX009 (ip), vehicle: saline with Tween-80
[5] = dose: 12.5 mg/kg/injection, schedule: Q01DX009 (ip), vehicle: Klucel (hydroxypropylcellulose) (HPC)
[6] = dose: 25.0 mg/kg/injection, schedule: Q01DX009 (ip), vehicle: Klucel (hydroxypropylcellulose) (HPC)
[7] = dose: 200.0 mg/kg/injection, schedule: Q01DX009 (ip), vehicle: saline with Tween-80

Measured: T/C

CCCCC[C@H](O)/C=C/[C@H]1[C@H](O)CC(=O)[C@@H]1C/C=C\CCCC(=O)O
inactive: dose: 50.0 mg/kg/injection, schedule: Q04DX002 (ip), vehicle: Klucel (hydroxypropylcellulose) (HPC) 122 % of control | dose: 100.0 mg/kg/injection, schedule: Q04DX002 (ip), vehicle: Klucel (hydroxypropylcellulose) (HPC) 105 % of control | dose: 200.0 mg/kg/injection, schedule: Q04DX002 (ip), vehicle: Klucel (hydroxypropylcellulose) (HPC) 114 % of control | dose: 400.0 mg/kg/injection, schedule: Q04DX002 (ip), vehicle: Klucel (hydroxypropylcellulose) (HPC) 114 % of control

OC(C1CO1)C(O)C1CO1 (stereo unspecified)
active: dose: 1.0 mg/kg/injection, schedule: Q01DX009 (ip), vehicle: saline 282 % of control | dose: 2.0 mg/kg/injection, schedule: Q01DX009 (ip), vehicle: saline 168 % of control | dose: 2.5 mg/kg/injection, schedule: Q01DX009 (ip), vehicle: saline 190 % of control | dose: 5.0 mg/kg/injection, schedule: Q01DX009 (ip), vehicle: saline 260 % of control | dose: 6.7 mg/kg/injection, schedule: Q01DX001 (ip), vehicle: saline 189 % of control | dose: 6.7 mg/kg/injection, schedule: Q04DX003 (ip), vehicle: saline 250 % of control | dose: 10.0 mg/kg/injection, schedule: Q01DX001 (ip), vehicle: saline 336 % of control and 209 % of control and 219 % of control | dose: 10.0 mg/kg/injection, schedule: Q04DX003 (ip), vehicle: saline 413 % of control | dose: 12.5 mg/kg/injection, schedule: Q01DX001 (ip), vehicle: saline 231 % of control and 292 % of control and 333 % of control | dose: 12.5 mg/kg/injection, schedule: Q04DX003 (ip), vehicle: saline 387 % of control | dose: 15.0 mg/kg/injection, schedule: Q01DX001 (ip), vehicle: saline 280 % of control and 292 % of control and 318 % of control
inactive: dose: 10.0 mg/kg/injection, schedule: Q01DX009 (ip), vehicle: saline 110 % of control

Cc1ncc([N+](=O)[O-])n1CCSC(=N)N
inactive: [1] 105 % of control | [2] 105 % of control

CC1=CC2OC34COC3CC(OC(=O)C(F)(F)F)C4(C)C2(C)CC1 (stereo unspecified)
inactive: dose: 75.0 mg/kg/injection, schedule: Q04DX003 (ip), vehicle: saline with Tween-80 110 % of control | dose: 300.0 mg/kg/injection, schedule: Q04DX003 (ip), vehicle: saline with Tween-80 117 % of control

Cc1cc(=O)c2cc(N)ccc2[nH]1
inactive: dose: 25.0 mg/kg/injection, schedule: Q01DX009 (ip), vehicle: water 110 % of control | dose: 50.0 mg/kg/injection, schedule: Q01DX009 (ip), vehicle: water 94 % of control | dose: 50.0 mg/kg/injection, schedule: Q04DX003 (ip), vehicle: water 102 % of control | dose: 100.0 mg/kg/injection, schedule: Q01DX009 (ip), vehicle: water 91 % of control | dose: 100.0 mg/kg/injection, schedule: Q04DX003 (ip), vehicle: water 106 % of control | dose: 200.0 mg/kg/injection, schedule: Q01DX009 (ip), vehicle: water 119 % of control | dose: 200.0 mg/kg/injection, schedule: Q04DX003 (ip), vehicle: water 113 % of control | dose: 400.0 mg/kg/injection, schedule: Q01DX009 (ip), vehicle: water 92 % of control | dose: 400.0 mg/kg/injection, schedule: Q04DX003 (ip), vehicle: water 103 % of control

O=[N+]([O-])c1cccc2c[n+](Cc3ccccc3)ccc12
inactive: dose: 12.5 mg/kg/injection, schedule: Q01DX009 (ip), vehicle: saline with Tween-80 117 % of control

CCCCCCCCCCCCSC(=N)N
inactive: dose: 0.39 mg/kg/injection, schedule: Q04DX003 (ip), vehicle: saline 104 % of control | dose: 0.78 mg/kg/injection, schedule: Q04DX003 (ip), vehicle: saline 104 % of control | dose: 3.12 mg/kg/injection, schedule: Q04DX003 (ip), vehicle: saline 100 % of control | dose: 6.25 mg/kg/injection, schedule: Q01DX009 (ip), vehicle: saline 109 % of control | dose: 12.5 mg/kg/injection, schedule: Q01DX009 (ip), vehicle: saline 100 % of control | dose: 25.0 mg/kg/injection, schedule: Q01DX009 (ip), vehicle: saline 100 % of control

CCOC(=O)C(Cc1ccc(N(CCCl)CCCl)cc1)NC(=O)C(Cc1ccccc1)NC=O (stereo unspecified)
inactive: dose: 12.5 mg/kg/injection, schedule: Q04DX003 (ip), vehicle: saline with Tween-80 118 % of control | [4] 90 % of control
active: [3] 168 % of control | dose: 50.0 mg/kg/injection, schedule: Q04DX003 (ip), vehicle: saline with Tween-80 172 % of control | dose: 132.0 mg/kg/injection, schedule: Q04DX003 (ip), vehicle: saline with Tween-80 227 % of control | dose: 133.0 mg/kg/injection, schedule: Q04DX003 (ip), vehicle: saline with Tween-80 200 % of control | [2] 254 % of control and 215 % of control

O=C(NN(Cn1c(=S)sc2ccccc21)Cn1c(=S)sc2ccccc21)c1ccncc1
inactive: dose: 6.25 mg/kg/injection, schedule: Q01DX009 (ip), vehicle: Klucel (hydroxypropylcellulose) (HPC) 102 % of control | [5] 120 % of control | [6] 118 % of control

O=C1c2ccccc2C(=O)C(Cl)C1Cl (stereo unspecified)
inactive: dose: 1.56 mg/kg/injection, schedule: Q01DX009 (ip), vehicle: saline with Tween-80 117 % of control | dose: 3.13 mg/kg/injection, schedule: Q01DX009 (ip), vehicle: saline with Tween-80 103 % of control | dose: 6.25 mg/kg/injection, schedule: Q01DX009 (ip), vehicle: saline with Tween-80 101 % of control

CC(=O)C1CC2c3ccccc3C1c1ccccc12 (stereo unspecified)
inactive: [4] 95 % of control | [7] 87 % of control

OCCOc1c(Cl)cc(Cl)cc1Cl
inactive: [3] 100 % of control | [4] 100 % of control | [1] 113 % of control | [7] 100 % of control | [2] 100 % of control

Nc1ccc(O)cc1
inactive: dose: 264.0 mg/kg/injection, schedule: Q01DX009 (ip), vehicle: saline sonified 109 % of control | dose: 400.0 mg/kg/injection, schedule: Q01DX009 (ip), vehicle: saline sonified 90 % of control

Cc1ccnc(NC(=O)Nc2cc(Cl)ccc2Cl)c1
inactive: [5] 101 % of control | [6] 103 % of control | dose: 50.0 mg/kg/injection, schedule: Q01DX009 (ip), vehicle: Klucel (hydroxypropylcellulose) (HPC) 120 % of control

Nc1nc(N)c2cc(CNc3ccc(C(=O)NC(C(=O)O)C(=O)O)cc3)ccc2n1
active: dose: 0.15 mg/kg/injection, schedule: Q01DX009 (ip), vehicle: saline 163 % of control

C=CCCCCCCCCC(=O)NC[n+]1cccc(O)c1
inactive: dose: 25.0 mg/kg/injection, schedule: Q01DX009 (ip), vehicle: saline with Tween-80 110 % of control | [3] 100 % of control | [4] 100 % of control

Cn1cc(S(C)=O)c(=O)c2ccccc21 (stereo unspecified)
inactive: dose: 50.0 mg/kg/injection, schedule: Q01DX009 (ip), vehicle: saline 99 % of control | dose: 100.0 mg/kg/injection, schedule: Q01DX009 (ip), vehicle: saline 99 % of control | dose: 200.0 mg/kg/injection, schedule: Q01DX009 (ip), vehicle: saline 111 % of control

CC1OC(Oc2c(-c3cc(O)c(O)c(O)c3)oc3cc(O)cc(O)c3c2=O)C(O)C(O)C1O (stereo unspecified)
inactive: [3] 119 % of control | [4] 100 % of control

CCCCCCC(O)CCCCCC
inactive: dose: 100.0 mg/kg/injection, schedule: Q01DX009 (ip), vehicle: other 90 % of control | dose: 200.0 mg/kg/injection, schedule: Q01DX009 (ip), vehicle: other 105 % of control

CC1CN(c2ccc([N+](=O)[O-])cc2)C(C)CN1 (stereo unspecified)
inactive: dose: 25.0 mg/kg/injection, schedule: Q04DX003 (ip), vehicle: saline 100 % of control | dose: 50.0 mg/kg/injection, schedule: Q04DX003 (ip), vehicle: saline 110 % of control | dose: 100.0 mg/kg/injection, schedule: Q04DX003 (ip), vehicle: saline 90 % of control

Sc1ccc2ccccc2c1
inactive: dose: 50.0 mg/kg/injection, schedule: Q04DX003 (ip), vehicle: Klucel (hydroxypropylcellulose) (HPC) 104 % of control | dose: 100.0 mg/kg/injection, schedule: Q01DX001 (ip), vehicle: Klucel (hydroxypropylcellulose) (HPC) 104 % of control | dose: 100.0 mg/kg/injection, schedule: Q04DX003 (ip), vehicle: Klucel (hydroxypropylcellulose) (HPC) 109 % of control | dose: 200.0 mg/kg/injection, schedule: Q01DX001 (ip), vehicle: Klucel (hydroxypropylcellulose) (HPC) 95 % of control | dose: 200.0 mg/kg/injection, schedule: Q04DX003 (ip), vehicle: Klucel (hydroxypropylcellulose) (HPC) 109 % of control | dose: 400.0 mg/kg/injection, schedule: Q01DX001 (ip), vehicle: Klucel (hydroxypropylcellulose) (HPC) 100 % of control
